Reference: US20250064789A1, “KETOAMIDE DERIVATIVES AND PHARMACEUTICAL USES THEREOF” (priority 2022, published 2025)
Read-outs that look alike come from different tables or passages of the source.

Biological target: recombinant SARS-CoV-2 M^pro (Severe acute respiratory syndrome coronavirus 2 (2019-nCoV) (SARS-CoV-2), UniProt P0DTD1)
Test: Inhibition of SARS-CoV-2 M^pro enzyme activity (fluorescent substrate assay)
Format: biochemical
Settings: inhibition of SARS-CoV-2 M^pro enzyme activity, read-out: IC50

| Molecule | IC50 (values in nM) [nM] | IC50 (values given in μM) [nM] |
| --- | --- | --- |
| O=C(NCc1nccs1)C(=O)[C@@H](Cc1ccccc1)NC(=O)C1(NC(=O)C2CCCC(F)(F)C2)CC(F)(F)C1 (some centres unmarked) [Compound 545] | 26.9 ± 0.2 | – |
| O=C(NCc1nccs1)C(=O)[C@@H](Cc1ccccc1)NC(=O)C1(NC(=O)C2CCC(F)(F)C2)CC(F)(F)C1 (some centres unmarked) [Compound 546] | 71.7 ± 7.1 | – |
| O=C(CC1CC(F)(F)C1)NC1(C(=O)N[C@H](Cc2ccccc2)C(=O)C(=O)NCc2nccs2)CC(F)(F)C1 [Compound 547] | 25.1 ± 1 | – |
| COC[C@@H](NC(=O)N1CCCC(F)(F)C1)C(=O)N[C@H](Cc1ccccc1)C(=O)C(=O)NCc1nccs1 [Compound 548] | 410.4 ± 1 | – |
| COC[C@@H](NC(=O)NC1CC(F)(F)C1)C(=O)N[C@H](Cc1ccccc1)C(=O)C(=O)NCc1nccs1 [Compound 549] | 21.2 ± 0.6 | – |
| COC[C@@H](NC(=O)NC1CCC(F)(F)CC1)C(=O)N[C@H](Cc1ccccc1)C(=O)C(=O)NCc1nccs1 [Compound 551] | 23.3 ± 3.1 | – |
| COC[C@@H](NC(=O)N1CC(F)(F)C(F)(F)C1)C(=O)N[C@H](Cc1ccccc1)C(=O)C(=O)NCc1nccs1 [Compound 552] | 200.9 ± 1.6 | – |
| COC[C@@H](NC(=O)OC1CC(F)(F)C1)C(=O)N[C@H](Cc1ccccc1)C(=O)C(=O)NCc1nccs1 [Compound 553] | 18.8 ± 4.6 | – |
| C[C@@H](NCC1CCC(F)(F)CC1)C(=O)N[C@H](Cc1ccccc1)C(=O)C(=O)NCc1nccs1 [Compound 554] | 890.1 ± 1.3 | – |
| O=C(NCc1nccs1)C(=O)[C@@H](Cc1ccccc1)NC(=O)C1CC1C(=O)NC1CC(F)(F)C1 (some centres unmarked) [Compound 555] | 477.3 ± 4.1 | – |
| CC1(C)C(C(=O)NC2CC(F)(F)C2)C1C(=O)N[C@H](Cc1ccccc1)C(=O)C(=O)NCc1nccs1 (some centres unmarked) [Compound 556] | 203.5 ± 0.6 | – |
| COC[C@@H](NC(=O)C1CCCC(F)(F)C1)C(=O)N[C@H](Cc1ccccc1)C(=O)C(=O)NCc1ccccn1 (some centres unmarked) [Compound 557] | 26.1 ± 0.4 | – |
| COC[C@@H](NC(=O)C1CCCC(F)(F)C1)C(=O)N[C@H](Cc1ccccc1)C(=O)C(=O)NCc1nnc(C)o1 (some centres unmarked) [Compound 559] | – | > 2500 |
| COC[C@@H](NC(=O)C1CCCC(F)(F)C1)C(=O)N[C@H](Cc1ccccc1)C(=O)C(=O)NCc1cocn1 (some centres unmarked) [Compound 560] | 22.1 ± 0.7 | – |
| COC[C@@H](NC(=O)C1CCCC(F)(F)C1)C(=O)N[C@H](Cc1ccccc1)C(=O)C(=O)NCc1ncon1 (some centres unmarked) [Compound 562] | – | > 2500 |
| COC[C@@H](NC(=O)C1CCCC(F)(F)C1)C(=O)N[C@H](Cc1ccccc1)C(=O)C(=O)NCc1ncno1 (some centres unmarked) [Compound 563] | – | > 2500 |
| COC[C@@H](NC(=O)C1CCCC(F)(F)C1)C(=O)N[C@H](Cc1ccccc1)C(=O)C(=O)NCc1ncsn1 (some centres unmarked) [Compound 564] | 774 ± 8.8 | – |
| COC[C@@H](NC(=O)C1CCCC(F)(F)C1)C(=O)N[C@H](Cc1cccc(Cl)c1)C(=O)C(=O)NCc1nccs1 (some centres unmarked) [Compound 566] | 33.2 ± 2.3 | – |
| O=C(NCc1nccs1)C(=O)[C@@H](Cc1ccccc1)NC(=O)[C@@H](CO)NC(=O)C1CCCC(F)(F)C1 (some centres unmarked) [Compound 567] | 63.6 ± 2.9 | – |
| CS(=O)(=O)CC[C@@H](NC(=O)C1CCCC(F)(F)C1)C(=O)N[C@H](Cc1ccccc1)C(=O)C(=O)NCc1nccs1 (some centres unmarked) [Compound 568] | 70.7 ± 1.8 | – |
| CS(=O)(=O)CC[C@@H](NC(=O)CC1CC(F)(F)C1)C(=O)N[C@H](Cc1ccccc1)C(=O)C(=O)NCc1nccs1 [Compound 569] | 18.8 ± 0.9 | – |
| O=C(NCc1nccs1)C(=O)[C@@H](Cc1ccccc1)NC(=O)[C@@H](CO)NC(=O)C1CCCC(F)(F)C1 (some centres unmarked) [Compound 570] | 40.6 ± 2 | – |
| O=C(O)C[C@@H](NC(=O)CC1CC(F)(F)C1)C(=O)N[C@H](Cc1ccccc1)C(=O)C(=O)NCc1nccs1 [Compound 572] | 33.8 ± 2.5 | – |
| COC(=O)C[C@@H](NC(=O)CC1CC(F)(F)C1)C(=O)N[C@H](Cc1ccccc1)C(=O)C(=O)NCc1nccs1 [Compound 574] | 14.4 ± 0.8 | – |
| CNC(=O)C[C@@H](NC(=O)CC1CC(F)(F)C1)C(=O)N[C@H](Cc1ccccc1)C(=O)C(=O)NCc1nccs1 [Compound 575] | 23.5 ± 0.9 | – |
| (R)-3-((R)-2-(benzyloxy)propionamido)-N-((5-chloropyridin-2-yl)methyl)-4-(4-fluorophenyl)-2-oxobutyramide [Compound 52] | 44.2 ± 3.4 | – |
